Data: patent publication JP2022046588A, “治療用組成物およびその使用” (priority 2016, dated 2017)
Read-outs that look alike come from different tables or passages of the source.

Legend:
[1] = test system: human esophageal cancer cell line KYSE-30 [ヒト食道癌細胞株KYSE-30]; assay: MTT cell proliferation assay, KYSE-30; assay type: cell-based; conditions: for inhibition at 58.5 µg/mL: low but significant
[2] = test system: human melanoma cell line A-2058 [ヒト黒色腫細胞株A-2058]; assay: MTT cell proliferation assay, A-2058; assay type: cell-based
[3] = test system: human colon adenocarcinoma cell line DLD-1 [ヒト結腸腺癌細胞株DLD-1]; assay: MTT cell proliferation assay, DLD-1; assay type: cell-based
[4] = test system: human basal cell carcinoma cell line TE 354.T [ヒト基底細胞癌細胞株TE 354.T]; assay: MTT cell proliferation assay, TE 354.T; assay type: cell-based; conditions: for inhibition at 50 µg/mL: Homo sapiens, Example 8, 50 μg/ml, 24 h
[5] = test system: human epidermoid carcinoma cell line A-431 [ヒト類表皮癌細胞株A-431]; assay: MTT cell proliferation assay, A-431; assay type: cell-based; conditions: for inhibition at 50 µg/mL: Homo sapiens, A-431, Example 7, 50 μg/ml, 24 h
[6] = test system: human gastric cancer cell line NCI-N87 [ヒト胃癌細胞株NCI-N87]; assay: MTT cell proliferation assay, NCI-N87
[7] = Homo sapiens, NCI-N87, read-out: antiproliferative activity

O=c1[nH]cc(F)c(=O)[nH]1 [5-フルオロウラシル]
antiproliferative activity (in words) ([1]; Example 13, 5-FU at 6.5 and 19.5 μg/ml): 有意ではない活性
antiproliferative activity (in words) ([1]; Example 14, 5-FU at 6.5 and 19.5 μg/ml): 有意ではない活性
inhibition at 58.5 µg/mL ([1]; Homo sapiens, KYSE-30, Example 13, 5-FU at 58.5 μg/ml, read-out: antiproliferative activity): 17%
inhibition at 58.5 µg/mL ([1]; Homo sapiens, KYSE-30, Example 14, 5-FU at 58.5 μg/ml, read-out: inhibition of proliferation): 16.8%
antiproliferative activity (in words) ([2]; Example 6, 5-FU at 0.195, 0.65 and 1.95 μg/ml): 低い且つ有意ではない活性
antiproliferative activity (in words) ([3]; Example 9, 5-FU at 0.65 and 1.95 μg/ml): 低い且つ有意ではない活性
antiproliferative activity (in words) ([3]; Example 10, 5-FU at 6.5, 19.5 and 58.5 μg/ml): 低い且つ有意ではない活性
antiproliferative activity (in words) ([4]; Example 8, 5-FU at 0.195, 0.65 and 1.95 μg/ml): 低い且つ有意ではない活性
antiproliferative activity (in words) ([5]; Example 7, 5-FU at 0.195, 0.65 and 1.95 μg/ml): 低い且つ有意ではない活性
activity ranking of 5-FU concentrations (in words) ([6]; Example 11, 5-FU at 6.5 μg/ml (of 6.5, 19.5, 58.5 μg/ml)): 最も高い活性
antiproliferative activity (in words) ([6]; Example 11, 5-FU at 6.5, 19.5 and 58.5 μg/ml): 低い且つ有意ではない活性
activity ranking of 5-FU concentrations (in words) ([6]; Example 12, 5-FU at 6.5 μg/ml (of 6.5, 19.5, 58.5 μg/ml)): 最も高い活性
antiproliferative activity (in words) ([6]; Example 12, 5-FU at 6.5, 19.5 and 58.5 μg/ml): 低い且つ有意ではない活性

CCCCCCCCCCCCC(O)CCCCC(O)CC(=O)OCC(O)CO (stereo not drawn) [GLY-0Ac-1, 1-(3,8-ジヒドロキシエイコサノイル)グリセロール]
inhibition at 50 µg/mL [4]: 38%
inhibition at 50 µg/mL [5]: 81.5%

CCCCCCCCCCCCCC(O)CCCCC(O)CC(=O)OCC(O)CO (stereo not drawn) [GLY-0Ac-2, 1-(3,8-ジヒドロキシヘンエイコサノイル)グリセロール]
potency ranking (in words) ([2]; Example 6, 50 μg/ml, highly purified compounds): 最も強力

CCCCCCCCCCCCC(O)CCCCC(O)CC(=O)OCC(O)COC(C)=O (stereo not drawn) [GLY-1Ac-1, 1-(3,8-ジヒドロキシエイコサノイル)3-アセトキシグリセロール]
potency ranking (in words) ([1]; Example 13, 50 μg/ml): 最も強力
inhibition at 10 µg/mL ([1]; Homo sapiens, KYSE-30, Example 13, 10 μg/ml, not statistically significant, read-out: antiproliferative activity): 9%
inhibition at 25 µg/mL ([1]; Homo sapiens, KYSE-30, Example 13, 25 μg/ml, read-out: antiproliferative activity): 50%
inhibition at 25 µg/mL ([3]; Homo sapiens, DLD-1, Example 9, second assay (retest), 25 μg/ml, read-out: antiproliferative activity): 13%
inhibition at 50 µg/mL ([3]; Homo sapiens, DLD-1, Example 9, second assay (retest), 50 μg/ml, read-out: antiproliferative activity): 94%
inhibition at 50 µg/mL [4]: 27.3%
inhibition at 50 µg/mL [5]: 80.6%
inhibition at 10 µg/mL [6, 7]: 39%
inhibition at 25 µg/mL [6, 7]: 86%

CCCCCCCCCCCCCC(O)CCCCC(O)CC(=O)OCC(O)COC(C)=O (stereo not drawn) [GLY-1Ac-2, 1-(3,8-ジヒドロキシヘンエイコサノイル)3-アセトキシグリセロール]
potency ranking (in words) ([3]; Example 9, first assay, 50 μg/ml): 最も強力

CCCCCCCCCCCCCCCC(=O)OCC(O)CO (stereo not drawn) [MGP, モノパルミチン酸グリセロール]
inhibition at 50 µg/mL ([1]; Homo sapiens, KYSE-30, Example 13, 50 μg/ml, read-out: inhibition of proliferation / antiproliferative activity): 75%
